Reference: US9532994B2, “Agents and methods for enhancing bone formation by oxysterols in combination with bone morphogenic proteins” (THE REGENTS OF THE UNIVERSITY OF CALIFORNIA, priority 2003, dated 2017)

What was measured:
M2 cells = assay: Adipogenesis of M2 cells, oil Red O staining and adipocyte count; format: cell-based, mouse; details: 10 μM Tro, 10 μM oxysterols, alone or in combination, 10 days (FIG. 7)
Method: Von Kossa and oil red O staining—Matrix mineralization in cell monolayers was detected by silver nitrate staining as previously described. Oil red O staining for detection of adipocytes was performed as previously described.
Test 1: M2 cells at 90% confluence were treated with vehicle (C), PPAR-γ activator, troglitazone 10 uM (Tro), alone or in combination with 10 μM oxysterols 20S-, 22R-, or 25S-hydroxycholesterol. After 8 days, adipocytes were identified by oil Red O staining and quantified by counting under a phase contrast microscope. FIG. 6A is a bar graph depicting the effect of oxysterols on reducing adipogenesis of MSC.
Test 2: (A) M2 cells at confluence were treated in RPMI containing 10% FBS with control vehicle or 10 μM troglitazone (Tro) in the absence or presence of 10 μM 20S or 22S oxysterols. After 10 days, adipocytes were visualized by oil Red O staining and quantified by light microscopy, shown in (B). Data from a representative of four experiments are shown, reported as the mean SD of quadruplicate determinations (p<0.001 for Tro vs. Tro+20S and Tro+22S). (C) M2 cells were treated at confluence with 10 μM Tro, alone or in combination with 10 μM 20S oxysterol. After 10 days, total RNA was isolated and analyzed for lipoprotein lipase (LPL), adipocyte P2 gene (aP2) or 18S rRNA expression by Northern blotting as described (Ref). Data from densitometric analysis of the Northern blot is shown in (D) as the average of duplicate samples, normalized to 18S rRNA.

[1] = system: M2-10B4 mouse marrow stromal cell line; assay: Alkaline phosphatase (ALP) activity assay in M2 cells; format: cell-based; details: for induction of alkaline phosphatase activity: 10 μM oxysterols, osteogenic medium, 3 days (FIG. 3A); for dose- and time-dependence of induction of alkaline phosphatase activity: concentrations between 0.5-10 μM; for alkaline phosphatase activity: ligands used at 10 μM, ±SD, control vehicle C: 18±2, p<0.01 for C vs. all ligands
Method: Cells: M2-10B4 mouse marrow stromal cell line obtained from American Type Culture Collection (ATCC, Rockville, Md., U.S.A.) was derived from bone marrow stromal cells of a (C57BL/6J×C3H/HeJ) F1 mouse, and support human and murine myelopoiesis in long-term cultures (as per ATCC) and have the ability to differentiate into osteoblastic and adipocytic cells. Unless specified, these cells were cultured in RPMI 1640 containing 10% heat-inactivated FBS, and supplemented with 1 mM sodium pyruvate, 100 U/ml penicillin, and 100 […] (all from Irvine Scientific).
Alkaline phosphatase activity assay: Colorimetric alkaline phosphatase (ALP) activity assay on whole cell extracts was performed as previously described. […]
Test 2: M2 cells were grown in RPMI medium containing 10% fetal bovine serum (FBS). At confluence, the cells were treated in RPMI containing 5% FBS plus ascorbate at 50 μg/ml and β-glycerophosphate at 3 mM to induce osteoblastic differentiation. Adipogenic differentiation was induced by treating the cells in growth medium plus 10 ˜M troglitazone. A vehicle (C) or oxysterol treatment was applied to cells in a variety of doses (in μM): 20S-Hydroxycholesterol, 25-Hydroxycholesterol, 22R-Hydroxycholesterol; 22S-Hydroxycholesterol; 7-ketocholesterol. Cells were always treated at 90% confluence. After 4 days, alkaline phosphatase activity was determined in whole cell lysates and normalized to protein. Alternatively, MSC cultures were prepared and treated with oxysterols as described above. Cells were treated at 90% confluence with the combination of 22R-Hydroxycholesterol and 20S-Hydroxycholesterol, each at 5 μM, for 4 to 96 hours. The oxysterols where removed and fresh media without oxysterols was added for a total duration of 96 hours. Alkaline phosphatase activity was measured in whole cell extracts and normalized to protein.
M2 cells were treated at 90% confluence with vehicle (C), or oxysterols 20S-Hydroxycholesterol or 22S-Hydroxycholesterol at (0.5 μM) or (1 μM), in the absence or presence of cytochrome P450 inhibitor (SKF525A 10 μM (+)). MSC cultures were also treated at 90% confluence with vehicle (C), or 20S-Hydroxycholesterol (2 μM), in the absence or presence of cytochrome P450 […] (Benzylimidazole 50 μM) or SKF525A (10 μM). After 4 days, alkaline phosphatase activity was measured in whole cell extracts and normalized to protein. […]

[2] = system: osteocalcin mRNA in M2 cells; assay: Northern blotting for osteocalcin mRNA in M2 cells; format: cell-based, mouse; details: 0.5-10 μM, as many as 14 days, data not shown
Method: The extent of gene induction was determined by densitometry.
After 4 and 8 days, total RNA from duplicate samples was isolated and analyzed for osteocalcin (Osc) and 28S rRNA expression by Northern blotting as described. FIG. 3E is a radiogram of Northern blotting for osteocalcin mRNA in M2 cells exposed to a control or combination of oxysterols for 4 or 8 days. FIG. 3F is a bar graph depicting the relative demsometric units of osteocalcin mRNA in M2 cells exposed to a control or combination of oxysterols for 4 or 8 days. Data from densitometric analysis of the Northern blot is shown in (F) as the average of duplicate samples, normalized to 28S rRNA.
Next, a combination of 22R and 20S oxysterols (RS, 2.5 μM each) were added in the presence or absence of SC as indicated. After 3 days, ALP activity was measured as described earlier. […] (B) M2 cells were treated as described in (A) and after 10 days matrix mineralization in cultures was quantified by a ^45Ca incorporation assay as described earlier. Results from a representative of three experiments are shown, reported as the mean±SD of quadruplicate determinations, normalized to protein concentration. (C) M2 cells were pretreated with 20 μM SC for 4 hours, followed by the addition of RS in the presence or absence of SC as described above. After 8 days, total RNA was isolated and analyzed for osteocalcin (Osc) and 18S rRNA expression by Northern blotting as previously described. Data from densitometric analysis of the Northern blot is shown in (D) as the average of duplicate samples, normalized to 18S rRNA. (E) M2 cells at confluence were pretreated for 2 hours with control vehicle (C), or PLA2 inhibitors ACA (25 μM) and MCOCF3 (MC, 20 μM), in osteogenic medium. Next, a combination of 22R and 20S oxysterols (RS, 2.5 μM) was added in the presence or absence of the inhibitors as indicated. After 3 days, ALP activity was measured as previously described. Data from a representative of three experiments are shown, reported as the mean±SD of quadruplicate determinations, normalized to protein concentration (p<0.01 for RS vs. RS+ACA and RS+MC). (F) M2 cells were treated as described in (E).

Row | SMILES | adipogenesis induced by troglitazone (M2 cells) | induction of alkaline phosphatase activity [1] | dose- and time-dependence of induction of alkaline phosphatase activity [1] | alkaline phosphatase activity [1] [activity units/mg protein] | induction of osteocalcin gene expression, individual oxysterols [2]
1 | CC(C)CC[C@@H](O)[C@@H](C)[C@H]1CC[C@H]2[C@@H]3CC=C4C[C@@H](O)CC[C@]4(C)[C@H]3CC[C@]12C [22R, 22(R)-hydroxycholesterol] | inhibited adipogenesis | induced | dose- and time-dependent | 45±5 | unable to induce
2 | CC(C)CCC[C@](C)(O)[C@H]1CC[C@H]2[C@@H]3CC=C4C[C@@H](O)CC[C@]4(C)[C@H]3CC[C@@]21C [20S, 20(S)-hydroxycholesterol] | inhibited adipogenesis | induced | dose- and time-dependent | 140±12 | unable to induce
3 | CC(C)CC[C@H](O)[C@@H](C)[C@H]1CC[C@H]2[C@@H]3CC=C4C[C@@H](O)CC[C@]4(C)[C@H]3CC[C@]12C [22S, 22(S)-hydroxycholesterol] | inhibited adipogenesis | induced | dose- and time-dependent |  | unable to induce
